In general, IC50 refers to the midpoint of a concentration-inhibition curve. High values mean weaker potency, low ones greater potency.

Structures are written as SMILES.

For the first experiment, the target named is T1, Pol theta (1-899) (Homo sapiens, UniProt O75417).
T1 construct: Pol theta (1-899) (5 nM) in assay buffer
T1 sequence (O75417 1-899): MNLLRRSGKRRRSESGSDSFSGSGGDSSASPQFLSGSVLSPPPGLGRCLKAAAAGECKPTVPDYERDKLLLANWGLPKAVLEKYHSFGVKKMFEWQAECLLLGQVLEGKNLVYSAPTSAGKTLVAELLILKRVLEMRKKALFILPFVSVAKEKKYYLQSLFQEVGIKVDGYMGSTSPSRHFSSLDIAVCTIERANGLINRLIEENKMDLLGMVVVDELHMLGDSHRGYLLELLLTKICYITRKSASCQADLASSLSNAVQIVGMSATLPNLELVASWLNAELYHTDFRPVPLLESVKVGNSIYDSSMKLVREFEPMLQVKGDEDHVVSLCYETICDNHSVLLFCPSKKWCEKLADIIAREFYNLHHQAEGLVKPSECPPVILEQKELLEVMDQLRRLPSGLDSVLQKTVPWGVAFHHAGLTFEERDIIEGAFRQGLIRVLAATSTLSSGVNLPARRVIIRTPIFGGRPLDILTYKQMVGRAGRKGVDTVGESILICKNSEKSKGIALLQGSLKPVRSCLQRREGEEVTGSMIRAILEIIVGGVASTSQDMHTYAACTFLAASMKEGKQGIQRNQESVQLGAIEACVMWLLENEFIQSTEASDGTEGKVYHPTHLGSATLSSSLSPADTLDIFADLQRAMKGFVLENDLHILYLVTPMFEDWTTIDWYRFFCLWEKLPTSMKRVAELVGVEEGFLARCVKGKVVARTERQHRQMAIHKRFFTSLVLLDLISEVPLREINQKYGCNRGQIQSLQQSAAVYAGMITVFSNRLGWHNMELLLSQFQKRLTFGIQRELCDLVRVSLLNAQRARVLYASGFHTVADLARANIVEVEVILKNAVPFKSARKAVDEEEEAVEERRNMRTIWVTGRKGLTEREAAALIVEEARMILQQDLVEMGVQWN
Briefly: Pol theta ATPase activity, NADH oxidation-coupled enzymatic assay (ATPase NADH coupling: Standard Screening: hPolQ). Format: biochemical. The settings on record: Pol theta (1-899) 5 nM, NADH oxidation-coupled ATPase assay; compounds of Table 3. Summed up:
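NADH-coupled ATPase readout: 5 nM Pol theta (1-899) preincubated 15 min with 10-point compound series in Tris pH 7.80, KCl, MgCl2, DTT, BSA, Tween, glycerol, then 100 μM ATP, 300 nM 50-mer poly-dT ssDNA, NADH, PEP, LDH and PK added (stock levels). A340 followed 60 min; slopes fit four-parameter for IC50.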
As to `COc1nnc(NC(=O)c2cnc(C)cc2-c2cccc(CC(N)=O)c2)s1` [Example 472, 4-[3-(carbamoylmethyl)phenyl]-N-(5-methoxy-1,3,4-thiadiazol-2-yl)-6-methylpyridine-3-carboxamide], the IC50 fell in the range of 1000 to 10000 nM.

Molecule `COc1ccc(-c2cc(C)ncc2C(=O)Nc2nnc(OC)s2)c(OC)n1` [Example 435, 2,6-dimethoxy-N-(5-methoxy-1,3,4-thiadiazol-2-yl)-6′-methyl-[3,4′-bipyridine]-3′-carboxamide] came in with an IC50 of 200 to 500 nM.

`CNC(=O)c1cncc(-c2cc(C)ncc2C(=O)Nc2nnc(OC)s2)c1` [Example 339, N3′-(5-methoxy-1,3,4-thiadiazol-2-yl)-N5,6′-dimethyl-[3,4′-bipyridine]-3′,5-dicarboxamide] had an IC50 of 1000 to 10000 nM.

In turn, `COc1nnc(NC(=O)c2cnc(C)cc2-c2ccc3c(c2)C(=O)NC3)s1` [Example 332, N-(5-methoxy-1,3,4-thiadiazol-2-yl)-6-methyl-4-(3-oxo-2,3-dihydro-1H-isoindol-5-yl)pyridine-3-carboxamide] came in with an IC50 of 1000 to 10000 nM.

With `COc1nnc(NC(=O)c2cnc(C)cc2-c2cccc(C(=O)NC3CC3)c2)s1` [Example 344, 4-[3(cyclopropylcarbamoyl)phenyl]-N-(5-methoxy-1,3,4-thiadiazol-2-yl)-6-methylpyridine-3carboxamide], the IC50 was in the range of 1000 to 10000 nM.

The same experiment, now with this note: Table 4; Pol theta (1-899) 5 nM, ATP, dT50 ssDNA.
`COc1cnc(Cl)cc1-c1cc(C)ncc1C(=O)Nc1nnc(O[C@@H]2CC[C@H](O)C2)s1` (single isomer, unassigned) [Example 59] came in with an IC50 of at most 200 nM.

Turning to `COc1nnc(NC(=O)c2cn3ccnc3cc2-c2c(F)cccc2OC)s1` [Example 50, 7-(2-fluoro-6-methoxyphenyl)-N-(5-methoxy-1,3,4-thiadiazol-2-yl)imidazo(1,2-a)pyridine-6-carboxamide], the IC50 is 1000 to 10000 nM.

The experiment is the same for the next values; noted with them: Table 5; Pol theta (1-899) 5 nM, ATP, dT50 ssDNA.
For `COc1cnc(Cl)cc1-c1cc(C)ncc1C(=O)Nc1nnc(O[C@@H]2COC3(CCCC3)C2)s1` (single isomer, unassigned) [Example 229], the IC50 is at most 200 nM.

The molecule `Cc1cc(-c2cc(Br)ncc2OC(F)F)c(C(=O)Nc2nnc(O[C@H]3CC[C@H](O)CC3)s2)cn1` [Example 205, 2′-bromo-5′-(difluoromethoxy)-N-(5-(((1r,4r)-4-hydroxycyclohexyl)oxy)-1,3,4-thiadiazol-2-yl)-6-methyl-(4,4′-bipyridine)-3-carboxamide] yielded a 50% inhibitory concentration (IC50) of at most 200 nM.

`COc1cnc(Br)cc1-c1cc(C)ncc1C(=O)Nc1nnc(OC2COC2)s1` [Example 188, 2′-bromo-5′-methoxy-6-methyl-N-(5-(oxetan-3-yloxy)-1,3,4-thiadiazol-2-yl)-(4,4′-bipyridine)-3-carboxamide]: the IC50 was at most 200 nM.

`COc1cnc(Cl)cc1-c1cc(C)ncc1C(=O)Nc1nnc(OC2CC3(COC3)C2)s1` [Example 135, N-(5-((2-oxaspiro (3.3)heptan-6-yl)oxy)-1,3,4-thiadiazol-2-yl)-2′-chloro-5′-methoxy-6-methyl-(4,4′-bipyridine)-3-carboxamide] registered an IC50 of at most 200 nM.

Molecule `COc1cnc(Cl)cc1-c1cc(C)ncc1C(=O)Nc1nnc(O[C@H]2CCO[C@@H]2C)s1` (single isomer, unassigned) [Example 115] returned a concentration for half-maximal inhibition (IC50) of at most 200 nM.

The molecule `COc1cnc(Cl)cc1-c1cc(OC2CC2)ncc1C(=O)Nc1nnc(O[C@@H]2CCOC2)s1` [Example 193, (R)-2′-chloro-6-cyclopropoxy-5′-methoxy-N-(5-((tetrahydrofuran-3-yl)oxy)-1,3,4-thiadiazol-2-yl)-(4,4′-bipyridine)-3-carboxamide] showed an IC50 of 500 to 1000 nM.

Take `COc1cnc(Cl)cc1-c1cc(C)ncc1C(=O)Nc1nnc(O[C@@H]2CCO[C@H]2C)s1` (single isomer, unassigned) [Example 116]: the concentration for half-maximal inhibition (IC50) was at most 200 nM.

`COc1cnc(Cl)c(F)c1-c1cc(C)ncc1C(=O)Nc1nnc(O[C@H]2CCC[C@H](O)C2)s1` (single isomer, unassigned) [Example 156] displayed an IC50 of at most 200 nM.
